Test results published in patent US7582638B2, “Pyrazole-isoquinoline urea derivatives as p38 kinase inhibitors” (Eli Lilly and Company, priority 2005, dated 2009).

Assays:
[1] = biological target: p38 kinase enzyme; assay: Inhibition of p38 kinase (33P-ATP, EGF peptide 661-681 substrate); assay type: biochemical; details: 40 minutes at 30° C.
Procedure: The kinase buffer solution is prepared by combining 2.5 mL 1M Tris-HCl (pH 7.5), 0.1 mL 1 M dithiothreitol, 1.0 mL 1 M magnesium chloride, and 300 μL 1% Triton X-100 and diluting to 100 mL with water. 84 mL of this kinase buffer solution is combined with 16 mL DMSO to prepare the 16% DMSO solution.
The 200 μM ATP solution is prepared by adding 102.6 μL 10 mM aqueous ATP, 25 μL ^33P-ATP, and 163.5 μL of 4 mM aqueous Epidermal Growth Factor Peptide 661-681 (Biomol, Catalog #P-121) in 5 mL kinase buffer solution.
The p38 kinase enzyme solution is prepared by dissolving 9.5 μL concentrated enzyme solution (250 ng p38 enzyme/μL kinase buffer solution) in 1536 μL kinase buffer solution.
An 80 μM solution of each test compound and control compound are prepared by dissolving 2 μL of a 10 mM stock solution of the respective compounds in dimethylsulfoxide in 248 μL of the 16% DMSO solution in a Costar 96-well microtiter plate. […]
10 μL of serially diluted compound is placed with a Beckman Multimek 96-well automated liquid handler to the assay plate. […] The plates are allowed to sit for 30 min and counted on a PE/Wallac Microbeta Trilux scintillation counter for ^33P-isotope.
The compound exemplified in Example 12 is initially tested at 10 concentrations (20 μM-1 nM using 1:3 serial dilutions). […] IC50 values are calculated (IDBS ActivityBase software) for each compound using non-linear regression.

[2] = test system: TNFα; assay: Inhibition of TNFα in vitro (LPS/interferon-γ treated mouse peritoneal macrophages, Luminex); assay type: cell-based; details: Peritoneal macrophage, LPS 50 ng/mL and interferon-γ 10 U/mL, 18 hours, read-out: IC50, suppression of TNFα in vitro
Procedure: 1 mL thioglycolate broth (5.0 g yeast extract, 15.0 g casitone or trypticase, 5.0 g dextrose, 2.5 g sodium chloride, 0.75 g L-cystine, 0.5 g sodium thioglycolate, 1.0 mg resazurin, and 0.75 g agar in 1.0 L distilled water) are injected into the peritoneal cavity of Balb/C female mice. At day 4 or 5 post-injection the mice are sacrificed and then injected i.p. with 4 mL RPMI-1640 medium (BioWhittaker) and the peritoneal macrophages are withdrawn by syringe.
Mouse peritoneal macrophages are counted with a hemocytometer and adjusted to 5×10^5 cells/well in 96-well plates in RPMI-1640 medium with 10% fetal bovine serum. 200 μL/well is plated in 96-well plates and the cells allowed to settle and adhere to the bottom of the well for at least 3 hours. The test compound or standard p38 kinase inhibitor is pre-treated using a series of 8 concentrations for 1 hour at 37° C. […]
50 μL of cytokine detection antibody is added and incubated for 60 seconds at room temperature on a shaker protected from light at setting 6 and then for 30 minutes at setting 3.3 washes are performed with the Bio-Plex Wash Buffer. […] Standards and samples are read on a Luminex machine. These intensity readings are then converted to picogram/milliliter units based on a 12-point standard curve created in duplicate using a four-parameter logistic regression method (Bio-Plex Manager 2.0, Bio-Rad), and the IC50 calculated. […]

Which IC50 [1] does the source give for `CS(=O)(=O)O.Cc1ccc(-n2nc(C3(C)CC3)cc2NC(=O)Nc2cnc(OC3CCN(C(=O)C4(C)CC4)CC3)c3ccccc23)cc1` [Example 12, 1-{1-[1-(1-Methyl-cyclopropanecarbonyl)-piperidin-4-yloxy]-isoquinolin-4-yl}-3-[5-(1-methyl-cyclopropyl)-2-p-tolyl-2H-pyrazol-3-yl]-urea mesylate] here?
Its IC50 is 34 nM.

And the IC50 [2]?
The IC50 was less than 9 nM.
